Test results: patent US10709709B2, “Substituted carbonucleoside derivatives useful as anticancer agents” (Pfizer Inc., priority 2016, dated 2020)
Where a name gives a salt, the structure may show the parent alone.

Tests used:
[1] = tested on: A549 lung adenocarcinoma cells; test: A549 proliferation assay (Cell Titer Glo); type: cell-based; conditions: 7 days with compound, cell viability by Cell Titer Glo (ATP)
Description: A549 lung adenocarcinoma cells (American Type Culture Collection) were maintained in DMEM growth media (Life Technologies) supplemented with 10% v/v heat inactivated fetal bovine serum (Sigma) and cultured at 37° C., 5% CO2. Exponentially growing A549 cells were plated in 96-well black tissue culture treated plates (Corning) at a density of […] in a volume of 100 μl culture media and allowed to adhere overnight at 37° C., 5% CO2. The following day, compound plates were prepared by making nine-point 3.3-fold dilutions in DMSO with a top concentration of 10 mM. Compounds were further diluted in culture media and 11 μl was added to the cells (final top assay concentration was 10 μM and DMSO was 0.2%). Cells were incubated with compound at 37° C., 5% CO2 for 7 days with media and compound replacement on day 4. Cell viability was assayed on Day 7 by adding 100 μl Cell Titer Glo (Promega) reagent to the plate to measure the amount of ATP present in the cells. Luminescence was read using the Envision 2104 Multilabel Reader (Perkin Elmer). The 50% inhibitory concentration (IC50) was determined using a 4-parameter fit model normalized to the DMSO control in dose response.

[2] = biological target: PRMT5/MEP50 protein complex (Homo sapiens (Human), UniProt O14744); test: PRMT5 biochemical assay (3H-SAM methylation of H4(1-21) peptide, filter plate scintillation); conditions: 10 nM PRMT5/MEP50 complex, 200 nM H4(1-21) peptide, 1 uM SAM, 25 minute incubation at room temperature
Summary of the method: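 Scintillation read-out: after 25 min at room temperature and a TCA stop, tritiated H4(1-21) product (peptide 200 nM) is caught on a filter plate. Reaction holds 10 nM PRMT5/MEP50 and 1 uM 3H-labelled plus cold SAM in 50 mM Tris pH 8.5 with MgCl2, EDTA and TCEP. IC50 values come from a 4-parameter dose-response fit.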

Chain of PRMT5/MEP50 protein complex (O14744 other isoform, or with tags, fused parts or gaps): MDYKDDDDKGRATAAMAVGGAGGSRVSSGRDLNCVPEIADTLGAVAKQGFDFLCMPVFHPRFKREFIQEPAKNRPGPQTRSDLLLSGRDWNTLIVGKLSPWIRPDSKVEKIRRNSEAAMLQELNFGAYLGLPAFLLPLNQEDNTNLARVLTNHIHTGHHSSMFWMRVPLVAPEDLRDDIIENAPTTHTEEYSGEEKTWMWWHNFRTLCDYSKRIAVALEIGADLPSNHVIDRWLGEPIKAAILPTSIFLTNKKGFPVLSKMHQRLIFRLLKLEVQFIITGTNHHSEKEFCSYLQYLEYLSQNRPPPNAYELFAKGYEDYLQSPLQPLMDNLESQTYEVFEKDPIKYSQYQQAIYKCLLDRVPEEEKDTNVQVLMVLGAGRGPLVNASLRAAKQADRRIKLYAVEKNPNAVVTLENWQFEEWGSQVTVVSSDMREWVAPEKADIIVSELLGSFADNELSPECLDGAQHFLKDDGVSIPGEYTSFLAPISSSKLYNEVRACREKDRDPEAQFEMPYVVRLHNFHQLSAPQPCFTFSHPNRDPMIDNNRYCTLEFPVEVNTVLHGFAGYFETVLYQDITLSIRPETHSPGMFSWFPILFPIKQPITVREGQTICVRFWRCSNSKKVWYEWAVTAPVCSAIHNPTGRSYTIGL
Chain of PRMT5/MEP50 protein complex (Q9BQA1 whole entry partner): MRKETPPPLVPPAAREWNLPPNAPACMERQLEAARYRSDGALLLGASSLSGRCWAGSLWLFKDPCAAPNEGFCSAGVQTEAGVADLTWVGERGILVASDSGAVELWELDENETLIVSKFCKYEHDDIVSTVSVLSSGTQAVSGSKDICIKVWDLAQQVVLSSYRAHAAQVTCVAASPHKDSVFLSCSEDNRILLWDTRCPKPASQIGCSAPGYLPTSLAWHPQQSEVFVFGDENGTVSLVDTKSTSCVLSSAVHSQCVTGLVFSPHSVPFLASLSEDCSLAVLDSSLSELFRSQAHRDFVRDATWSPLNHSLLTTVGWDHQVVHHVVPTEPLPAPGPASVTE

Structure (SMILES) | IC50 ([1]; Homo sapiens, A549, 168 h) [nM] | IC50 [2] [nM] | IC50 ([1]; Homo sapiens, 168 h) [nM] | IC50 ([1]; hydrochloride) [nM] | IC50 [1] [nM]
Cc1ncc2c(F)cn([C@@H]3C[C@H](Oc4ccc(F)c5c4CNCC5)[C@@H](O)[C@H]3O)c2n1 [Example 132, (1S,2S,3S,5R)-3-((5-fluoro-1,2,3,4-tetrahydroisoquinolin-8-yl)oxy)-5-(5-fluoro-2-methyl-7H-pyrrolo[2,3-d]pyrimidin-7-yl)cyclopentane-1,2-diol] | 2750 | 2 | – | – | –
Nc1ncnc2c1c(F)cn2[C@@H]1C[C@H](Oc2cc(C(F)F)c(F)c3c2CNCC3)[C@@H](O)[C@H]1O [Example 196, (1S,2S,3R,5S)-3-(4-amino-5-fluoro-7H-pyrrolo[2,3-d]pyrimidin-7-yl)-5-((6-(difluoromethyl)-5-fluoro-1,2,3,4-tetrahydroisoquinolin-8-yl)oxy)cyclopentane-1,2-diol] | 3 | 1 | – | – | –
Cc1ncnc2c1ccn2[C@@H]1C[C@H](Oc2cc(OC(F)F)c(F)c3c2CNCC3)[C@@H](O)[C@H]1O [Example 200, (1S,2S,3S,5R)-3-((6-(difluoromethoxy)-5-fluoro-1,2,3,4-tetrahydroisoquinolin-8-yl)oxy)-5-(4-methyl-7H-pyrrolo[2,3-d]pyrimidin-7-yl)cyclopentane-1,2-diol] | 140 | – | – | – | –
Cc1ncnc2c1ccn2[C@@H]1C[C@H](Oc2ccc(Cl)cc2CN)[C@@H](O)[C@H]1O [Example 159, (1S,2S,3S,5R)-3-(2-(aminomethyl)-4-chlorophenoxy)-5-(4-methyl-7H-pyrrolo[2,3-d]pyrimidin-7-yl)cyclopentane-1,2-diol] | 5200 | 5 | – | – | –
Nc1ncnc2c1c(Cl)cn2[C@@H]1C[C@H](Oc2cc(F)c(F)c3c2CNCC3)[C@@H](O)[C@H]1O [Example 128, (1S,2S,3R,5S)-3-(4-amino-5-chloro-7H-pyrrolo[2,3-d]pyrimidin-7-yl)-5-((5,6-difluoro-1,2,3,4-tetrahydroisoquinolin-8-yl)oxy)cyclopentane-1,2-diol] | 597 | 1 | – | – | –
Cc1ncnc2c1ccn2[C@@H]1C[C@H]([C@H](O)c2ccc(F)c(Cl)c2)[C@@H](O)[C@H]1O [Example 5, (1S,2R,3R,5R)-3-[(S)-(3-chloro-4-fluorophenyl) (hydroxy)methyl]-5-(4-methyl-7H-pyrrolo[2,3-d]pyrimidin-7-yl)cyclopentane-1,2-diol] | – | 25 | 932 | – | –
Cc1ncnc2c1ccn2[C@@H]1C[C@H](Oc2cccc3c2C(N)CCC3)[C@@H](O)[C@H]1O (single isomer, unassigned) [Example 186] | 9530 | 12 | – | – | –
Nc1ncnc2c1c(F)cn2[C@@H]1C[C@H](Oc2cccc3c2CNCC3)[C@@H](O)[C@H]1O [Example 99, (1S,2S,3R,5S)-3-(4-amino-5-fluoro-7H-pyrrolo[2,3-d]pyrimidin-7-yl)-5-((1,2,3,4-tetrahydroisoquinolin-8-yl)oxy)cyclopentane-1,2-diol] | 728 | 2 | – | – | –
Cc1cc2c(c(O[C@H]3C[C@@H](n4cc(C)c5c(N)ncnc54)[C@H](O)[C@@H]3O)c1)CNCC2 [Example 122, (1S,2S,3R,5S)-3-(4-amino-5-methyl-7H-pyrrolo[2,3-d]pyrimidin-7-yl)-5-((6-methyl-1,2,3,4-tetrahydroisoquinolin-8-yl)oxy)cyclopentane-1,2-diol] | 4480 | 3 | – | – | –
Nc1ncnc2c1c(F)cn2[C@@H]1C[C@H](Oc2cc(Cl)cc3c2CNCC3)[C@@H](O)[C@H]1O [Example 102, (1S,2S,3R,5S)-3-(4-amino-5-fluoro-7H-pyrrolo[2,3-d]pyrimidin-7-yl)-5-((6-chloro-1,2,3,4-tetrahydroisoquinolin-8-yl)oxy)cyclopentane-1,2-diol] | 192 | 1 | – | – | –
Cc1ncnc2c1ccn2[C@@H]1C[C@H](Oc2cccc3c2CNCC3)[C@@H](O)[C@H]1O [Example 78, (1S,2S,3R,5S)-3-(4-methyl-7H-pyrrolo[2,3-d]pyrimidin-7-yl)-5-((1,2,3,4-tetrahydroisoquinolin-8-yl)oxy)cyclopentane-1,2-diol] | 1620 | 1 | – | – | –
Nc1ncnc2c1c(F)cn2[C@@H]1C[C@H](Oc2cc(C(F)F)cc3c2CNCC3)[C@@H](O)[C@H]1O [Example 195, (1S,2S,3R,5S)-3-(4-amino-5-fluoro-7H-pyrrolo[2,3-d]pyrimidin-7-yl)-5-((6-(difluoromethyl)-1,2,3,4-tetrahydroisoquinolin-8-yl)oxy)cyclopentane-1,2-diol] | 22 | 1 | – | – | –
Cc1ncnc2c1ccn2[C@@H]1C[C@H](Oc2cc(Cl)cc3c2CNCC3)[C@@H](O)[C@H]1O [Example 87, (1S,2S,3S,5R)-3-((6-chloro-1,2,3,4-tetrahydroisoquinolin-8-yl)oxy)-5-(4-methyl-7H-pyrrolo[2,3-d]pyrimidin-7-yl)cyclopentane-1,2-diol] | 296 | 2 | – | – | –
Cc1ncnc2c1ccn2[C@@H]1C[C@H]([C@H](O)c2cccc3c2CNCC3)[C@@H](O)[C@H]1O [Example 56, (1S,2R,3R,5R)-3-((S)-hydroxy(1,2,3,4-tetrahydroisoquinolin-8-yl)methyl)-5-(4-methyl-7H-pyrrolo[2,3-d]pyrimidin-7-yl)cyclopentane-1,2-diol] | 378 | 2 | – | – | –
Cc1cc2c(c(O[C@H]3C[C@@H](n4ccc5c(C)ncnc54)[C@H](O)[C@@H]3O)c1)CNCCO2 [Example 206, (1S,2S,3S,5R)-3-((8-methyl-2,3,4,5-tetrahydrobenzo[f][1,4]oxazepin-6-yl)oxy)-5-(4-methyl-7H-pyrrolo[2,3-d]pyrimidin-7-yl)cyclopentane-1,2-diol] | 6550 | – | – | – | –
Cc1ncnc2c1ccn2[C@@H]1C[C@H](Oc2ccc(F)c3c2CNCC3C)[C@@H](O)[C@H]1O (single isomer, unassigned) [Example 183, hydrochloride] | – | 1 | – | 136 | –
Cc1ncnc2c1ccn2[C@@H]1C[C@H](C(F)c2ccc(F)cc2)[C@@H](O)[C@H]1O (single isomer, unassigned) [Example 22] | 135 | 3 | – | – | –
Cc1cn([C@@H]2C[C@H](Oc3ccc(F)c4c3CNCC4)[C@@H](O)[C@H]2O)c2ncnc(N)c12 [Example 121, (1S,2S,3R,5S)-3-(4-amino-5-methyl-7H-pyrrolo[2,3-d]pyrimidin-7-yl)-5-((5-fluoro-1,2,3,4-tetrahydroisoquinolin-8-yl)oxy)cyclopentane-1,2-diol] | 938 | 1 | – | – | –
Cc1ncnc2c1ccn2[C@@H]1C[C@H](Oc2cc(Cl)c(F)cc2[C@@H](C)N)[C@@H](O)[C@H]1O [Example 140, (1S,2S,3S,5R)-3-(2-((R)-1-aminoethyl)-5-chloro-4-fluorophenoxy)-5-(4-methyl-7H-pyrrolo[2,3-d]pyrimidin-7-yl)cyclopentane-1,2-diol] | 2380 | 17 | – | – | –
Cc1ncnc2c1ccn2[C@@H]1C[C@H](Oc2cc(C(F)F)c(F)c3c2CNCC3C)[C@@H](O)[C@H]1O (stereo partly drawn) [Example 211, (1S,2S,3S,5R)-3-((6-(difluoromethyl)-5-fluoro-4-methyl-1,2,3,4-tetrahydroisoquinolin-8-yl)oxy)-5-(4-methyl-7H-pyrrolo[2,3-d]pyrimidin-7-yl)cyclopentane-1,2-diol] | – | 1 | – | – | 14
Nc1ncnc2c1c(F)cn2[C@@H]1C[C@H]([C@H](O)c2ccc(F)cc2)[C@@H](O)[C@H]1O [Example 25, (1R,2S,3R,5R)-3-(4-amino-5-fluoro-7H-pyrrolo[2,3-d]pyrimidin-7-yl)-5-[(S)-(4-fluorophenyl)(hydroxy)methyl]cyclopentane-1,2-diol] | 1670 | 56 | – | – | –
Cc1ncnc2c1ccn2[C@@H]1C[C@H](Oc2cc(C#N)cc3c2CNCC3)[C@@H](O)[C@H]1O [Example 91, 8-(((1S,2S,3S,4R)-2,3-dihydroxy-4-(4-methyl-7H-pyrrolo[2,3-d]pyrimidin-7-yl)cyclopentyl)oxy)-1,2,3,4-tetrahydroisoquinoline-6-carbonitrile] | 119 | 1 | – | – | –
Nc1ncnc2c1c(F)cn2[C@@H]1C[C@H](Oc2cc(Br)cc3c2CNCC3)[C@@H](O)[C@H]1O [Example 101, (1S,2S,3R,5S)-3-(4-amino-5-fluoro-7H-pyrrolo[2,3-d]pyrimidin-7-yl)-5-((6-bromo-1,2,3,4-tetrahydroisoquinolin-8-yl)oxy)cyclopentane-1,2-diol] | 112 | 1 | – | – | –
Cc1ncnc2c1ccn2[C@@H]1C[C@H](Oc2cc(C(F)F)cc3c2CNCCO3)[C@@H](O)[C@H]1O [Example 205, (1S,2S,3S,5R)-3-((8-(difluoromethyl)-2,3,4,5-tetrahydrobenzo[f][1,4]oxazepin-6-yl)oxy)-5-(4-methyl-7H-pyrrolo[2,3-d]pyrimidin-7-yl)cyclopentane-1,2-diol] | 248 | – | – | – | –
Nc1ncnc2c1c(Br)cn2[C@@H]1C[C@H](Oc2cc(Cl)cc3c2CNCC3)[C@@H](O)[C@H]1O [Example 131] | 482 | – | – | – | –
